Source: US11939609B2, “Rewiring aberrant cancer signaling to a therapeutic effector response with a synthetic two-component system” (The Board of Trustees of the Leland Stanford Junior …, priority 2017, dated 2024)

Tests used:
MCF10A cells = experiment: Caspase-3 activity assay (fluorescent indicator imaging); format: cell-based; conditions: non-cancerous breast epithelium line
From the text: (§1) To package lentivirus, HEK293T cells at ˜70% confluency were transfected with psPAX2, pMD2.G, and pLL3.7 plasmids using Lipofectamine 2000 (Life Technologies). Two days following transfection, viral supernatant was filtered with a 0.45 μm PES filter before using to infect target cells. rAAVdj-CAG-RASER1C-mCardinal-BID and rAAVdj-mCardinal were produced at the Stanford Gene Vector and Virus Core (Stanford University). Virus infected cells were neither sorted nor purified prior to obtaining the results shown, to remain close to the actual use scenario.
(§2) NucView 488 Caspase-3 substrate (Biotium) and Hoechst 33342 (Invitrogen) were diluted into culture media to final concentrations of 1 μM each. After 1 h of incubation, cells were imaged with the Axiovert 200M with a 10×0.5-NA air objective.

MRC5 cells = experiment: as above; format: cell-based; conditions: non-cancerous lung fibroblast line
From the text: as §1, §2

[1] = tested on: BT-474, H1975, MCF-7, MCF-10A and MRC-5 cells; conditions: 10 μM carboplatin + 10 μM paclitaxel; 10 μM lapatinib

Row | Compound | apoptosis (caspase-3 fluorescent indicator) (MCF10A cells) | apoptosis (caspase-3 fluorescent indicator) (MRC5 cells) | cytotoxicity across ErbB-hyperactive and ErbB-normal cell lines [1]
1 | CC(=O)O[C@H]1C(=O)[C@@]2(C)[C@H]([C@H](OC(=O)c3ccccc3)[C@]3(O)C[C@H](OC(=O)[C@H](O)[C@@H](NC(=O)c4ccccc4)c4ccccc4)C(C)=C1C3(C)C)[C@]1(OC(C)=O)CO[C@@H]1C[C@@H]2O [paclitaxel] | apoptosis is induced by paclitaxel | apoptosis is induced by paclitaxel | –
2 | CS(=O)(=O)CCNCc1ccc(-c2ccc3ncnc(Nc4ccc(OCc5cccc(F)c5)c(Cl)c4)c3c2)o1 [Lapatinib, lapatinib] | – | – | varied by cell line, but did not consistently correlate with ErbB status
